≈ marks a conversion by molar mass, not a printed value.

The conditions of series [1]: cited from earlier work.
Series [2] in a line: Intrinsic dissolution rate in water. The format is physicochemical. The conditions noted are these: water at 37° C. The text has this:
Intrinsic dissolution is a method that utilizes a compressed disc of known area (a constant surface), effectively eliminating surface area and surface electrical charges as dissolution variables. The dissolution rate obtained by this method is termed the intrinsic dissolution rate and is characteristic of each solid compound in a given solvent under the fixed experimental conditions. The value is generally expressed as mg dissolved per minute per centimeters squared and is useful in predicting probable absorption problems due to dissolution rate. […] See USP General Chapter <1087> for more information.

Series [3] can be described thus: Aqueous solubility of topiramate. Type of series: physicochemical. The conditions noted are these: water, 37 °C, thermodynamic from solid, range stated without source. The method, then: Aqueous solubility is determined by adding the therapeutic agent to stirred or agitated water maintained in a constant temperature bath at a temperature of 37 degrees centigrade until no more agent dissolves. The resulting solution saturated with active agent is then filtered, typically under pressure through a 0.8-micron Millipore filter, and the concentration in solution is measured by any appropriate analytical method including gravimetric, ultraviolet spectrophometry, chromatography, and the like.

The conditions of series [4]: in vivo; cited from earlier work.

Consider `CC1(C)O[C@@H]2[C@@H](CO[C@@]3(COS(N)(=O)=O)OC(C)(C)O[C@@H]23)O1` [Topiramate, topiramate], for which, in series [1] (alkaline solutions), the “solubility in alkaline solutions containing sodium hydroxide or sodium phosphate” value is “soluble”. Also, in series [1] (organic solvents), the “solubility in acetone, dimethylsulfoxide and ethanol” value is “soluble”. Moreover, the “solubility of topiramate in water” value in series [1] (water) is listed as “about 9.8 mg/ml”. In addition, the “dissolution rate in water” value in series [2] was “below 0.6 mg/min/cm2”. Moreover, in series [3], the solubility fell in the range of 9.8 to 13 mg/mL (≈ 28.9 to 38.3 mM). Besides, in series [4], the excretion entry is “excreted largely through the urine”, the metabolism result is given as “not extensively metabolized” and the “pharmacokinetics (dose dependence of blood plasma concentration)” value is reported as “linear”.

One may read the solubility as the dissolved amount per volume that the medium holds. The low end stands for a poorly soluble substance, the high end for a readily soluble substance.

The values are drawn from patent publication US20050136108A1, “Stepwise delivery of topiramate over prolonged period of time” (priority 2003, published 2005).
